Measurements published in patent US20240425479A1, “HALO-SUBSTITUTED AMINO AZA-HETEROARYL COMPOUNDS AS INHIBITORS OF THE HAEMATOPOIETIC PROGENITOR KINASE 1 (HPK1)” (priority 2021, published 2024).

Tests used:
[1] = target: T1, Recombinant (1-346) HPK1 (h) (Homo sapiens, UniProt Q92918); experiment: HPK1 human STE kinase enzymatic radiometric assay; format: biochemical; conditions: read-out: HPK1 IC50 nM Range
T1 construct: Recombinant (1-346) HPK1 (h) is incubated with 8 mM MOPS pH 7.0
T1 sequence (Q92918 1-346): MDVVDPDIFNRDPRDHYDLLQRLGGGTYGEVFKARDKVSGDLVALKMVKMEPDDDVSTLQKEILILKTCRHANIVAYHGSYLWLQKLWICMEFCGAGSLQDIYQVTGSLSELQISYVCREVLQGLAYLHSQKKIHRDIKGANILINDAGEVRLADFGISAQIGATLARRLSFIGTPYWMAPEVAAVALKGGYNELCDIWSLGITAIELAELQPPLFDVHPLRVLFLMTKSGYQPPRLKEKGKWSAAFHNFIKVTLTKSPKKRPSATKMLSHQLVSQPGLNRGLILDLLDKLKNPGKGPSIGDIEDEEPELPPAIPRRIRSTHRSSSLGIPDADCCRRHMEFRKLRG
Method in brief: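 Compounds in 3-fold, 9-point serial dilution; kinase (residues 1-346) phosphorylates myelin basic protein (0.33 mg/mL) using [gamma-33P]-ATP at pH 7.0 (MOPS, EDTA, Mg acetate) for 40 min, room temperature. Acid-quenched mixture filtered onto P30 mats; incorporated radioactivity read by scintillation counting.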

Lck (h) = Lck (h) (Homo sapiens, UniProt P06239); experiment: Lck human STE kinase enzymatic radiometric assay; format: biochemical; conditions: read-out: Lck IC50 nM Range
Lck (h), sequence (P06239 whole entry): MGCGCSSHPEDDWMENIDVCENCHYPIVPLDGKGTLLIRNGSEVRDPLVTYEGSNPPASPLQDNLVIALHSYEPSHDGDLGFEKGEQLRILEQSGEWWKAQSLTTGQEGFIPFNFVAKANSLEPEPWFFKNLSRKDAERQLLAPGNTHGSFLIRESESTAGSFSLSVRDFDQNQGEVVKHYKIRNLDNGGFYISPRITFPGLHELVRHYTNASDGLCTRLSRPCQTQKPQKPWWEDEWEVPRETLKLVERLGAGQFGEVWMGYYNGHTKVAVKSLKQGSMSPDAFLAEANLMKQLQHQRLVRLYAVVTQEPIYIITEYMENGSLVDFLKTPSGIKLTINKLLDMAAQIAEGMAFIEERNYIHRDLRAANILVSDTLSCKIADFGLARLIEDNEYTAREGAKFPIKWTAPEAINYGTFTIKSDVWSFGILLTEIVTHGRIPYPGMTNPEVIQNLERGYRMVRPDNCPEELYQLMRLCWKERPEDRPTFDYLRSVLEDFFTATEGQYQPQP
Experimental: (b) Lck Human STE Kinase Enzymatic Radiometric Assay
Lck (h) is incubated with 50 mM Tris pH 7.5, 0.1 mM EGTA, 0.1 mM Na3VO4, 250 uM KVEKIGEGTYGVVYK (Cdc2 peptide), 10 mM MgAcetate and [gamma-33P]-ATP (specific activity and concentration as required). The reaction is initiated by the addition of the Mg/ATP mix. After incubation for 40 minutes at room temperature, the reaction is stopped by the addition of phosphoric acid to a concentration of 0.5%, 10 μL of the reaction is then spotted onto a P30 filtermat and washed four times for 4 minutes in 0.425% phosphoric acid and once in methanol prior to drying and scintillation counting. For more details on the kinase assay procedures see: Gao, Y. et. al.; Biochem J., 451 (2): 313-328, 2013.

| Structure (SMILES) | IC50 [1] | IC50 (Lck (h)) |
| --- | --- | --- |
| Cc1c[nH]c(=O)c2ccc(-c3nc(-c4ccc(N5CCOCC5)c(CN(C)C)c4)c(F)nc3N)cc12 [Example I-96, 6-(3-amino-6-(3-((dimethylamino)methyl)-4-morpholinophenyl)-5-fluoropyrazin-2-yl)-4-methylisoquinolin-1(2H)-one] | 0.1 to 10 nM | > 1000 nM |
| Cc1[nH]c(=O)c2ccc(-c3nc(-c4ccc(C5CCOCC5)c(CN(C)C)c4)c(F)nc3N)cc2c1F [Example I-97, 6-(3-amino-6-(3-((dimethylamino)methyl)-4-(tetrahydro-2H-pyran-4-yl)phenyl)-5-fluoropyrazin-2-yl)-4-fluoro-3-methylisoquinolin-1(2H)-one] | 0.1 to 10 nM | > 1000 nM |
| Cc1c[nH]c(=O)c2ccc(-c3nc(-c4ccc(C5CCOCC5)c(CN(C)C)c4)c(F)nc3N)cc12 [Example I-98, 6-(3-amino-6-(3-((dimethylamino)methyl)-4-(tetrahydro-2H-pyran-4-yl)phenyl)-5-fluoropyrazin-2-yl)-4-methylisoquinolin-1(2H)-one] | 0.1 to 10 nM | > 1000 nM |
| Cc1cc2cc(-c3nc(-c4ccc(C5CCOCC5)c(CN(C)C)c4)c(F)nc3N)cc(F)c2c(=O)[nH]1 [Example I-100, 6-(3-amino-6-(3-((dimethylamino)methyl)-4-(tetrahydro-2H-pyran-4-yl)phenyl)-5-fluoropyrazin-2-yl)-8-fluoro-3-methylisoquinolin-1(2H)-one] | 0.1 to 10 nM | > 1000 nM |
| CC(C)N1CCN(c2ccc(-c3nc(-c4ccc5c(c4)C4(CC4)CNC5=O)c(N)nc3F)cc2)CC1 [Example I-103, 6′-(3-amino-5-fluoro-6-(4-(4-isopropylpiperazin-1-yl)phenyl)pyrazin-2-yl)-2′,3′-dihydro-1′H-spiro[cyclopropane-1,4′-isoquinolin]-1′-one] | 0.1 to 10 nM | 101 to 1000 nM |
| CN(C)Cc1cc(-c2nc(-c3ccc4c(c3)C3(CC3)CNC4=O)c(N)nc2F)ccc1C1CCOCC1 [Example I-110, 6′-(3-amino-6-(3-((dimethylamino)methyl)-4-(tetrahydro-2H-pyran-4-yl)phenyl)-5-fluoropyrazin-2-yl)-2′,3′-dihydro-1′H-spiro[cyclopropane-1,4′-isoquinolin]-1′-one] | 0.1 to 10 nM | 101 to 1000 nM |
| Nc1nc(F)c(-c2ccc(N3CCOCC3)c(CN3CCCC3)c2)nc1-c1ccc2c(c1)CCNC2=O [Example I-113, 6-(3-amino-5-fluoro-6-(4-morpholino-3-(pyrrolidin-1-ylmethyl)phenyl)pyrazin-2-yl)-3,4-dihydroisoquinolin-1(2H)-one] | 0.1 to 10 nM | > 1000 nM |
| Cc1[nH]c(=O)c2c(F)cc(-c3nc(-c4ccc(C5CCOCC5)c(CN(C)C)c4)c(F)nc3N)cc2c1F [Example I-117, 6-(3-amino-6-(3-((dimethylamino)methyl)-4-(tetrahydro-2H-pyran-4-yl)phenyl)-5-fluoropyrazin-2-yl)-4,8-difluoro-3-methylisoquinolin-1(2H)-one] | 0.1 to 10 nM | > 1000 nM |
| CN(C)Cc1cc(-c2nc(-c3cc(F)c4c(=O)[nH]cc(F)c4c3)c(N)nc2F)ccc1C1CCOCC1 [Example I-121, 6-(3-amino-6-(3-((dimethylamino)methyl)-4-(tetrahydro-2H-pyran-4-yl)phenyl)-5-fluoropyrazin-2-yl)-4,8-difluoroisoquinolin-1(2H)-one] | 0.1 to 10 nM | > 1000 nM |
| COC1CCN(Cc2cc(-c3nc(-c4ccc5c(c4)CCNC5=O)c(N)nc3F)ccc2N2CCOCC2)C1 (stereo not shown) [Example I-133, 6-(3-amino-5-fluoro-6-(3-((3-methoxypyrrolidin-1-yl)methyl)-4-morpholinophenyl)pyrazin-2-yl)-3,4-dihydroisoquinolin-1(2H)-one] | 0.1 to 10 nM | > 1000 nM |
| CN(C)Cc1cc(-c2nc(-c3cc4c(F)c[nH]c(=O)c4cc3F)c(N)nc2F)ccc1N1CCOCC1 [Example I-142, 6-(3-amino-6-(3-((dimethylamino)methyl)-4-morpholinophenyl)-5-fluoropyrazin-2-yl)-4,7-difluoroisoquinolin-1(2H)-one] | 0.1 to 10 nM | > 1000 nM |
| Nc1nc(F)c(-c2ccc(N3CCOCC3)c(CN3CCC3)c2)nc1-c1cc2c(cc1F)C(=O)NCC2 [Example I-145, 6-(3-amino-6-(3-(azetidin-1-ylmethyl)-4-morpholinophenyl)-5-fluoropyrazin-2-yl)-7-fluoro-3,4-dihydroisoquinolin-1(2H)-one] | 0.1 to 10 nM | > 1000 nM |
| Nc1nc(F)c(-c2ccc(N3CCOCC3)c(CN3CCC3)c2)nc1-c1cc(F)c2c(c1)CCNC2=O [Example I-146, 6-(3-amino-6-(3-(azetidin-1-ylmethyl)-4-morpholinophenyl)-5-fluoropyrazin-2-yl)-8-fluoro-3,4-dihydroisoquinolin-1(2H)-one] | 0.1 to 10 nM | > 1000 nM |
| Nc1nc(F)c(-c2ccc(C3CCOCC3)c(CN3CCCC3)c2)nc1-c1cc2c(cc1F)C(=O)NCC2 [Example I-148, 6-(3-amino-5-fluoro-6-(3-(pyrrolidin-1-ylmethyl)-4-(tetrahydro-2H-pyran-4-yl)phenyl)pyrazin-2-yl)-7-fluoro-3,4-dihydroisoquinolin-1(2H)-one] | 0.1 to 10 nM | > 1000 nM |
| CN(C)Cc1cc(-c2nc(-c3ccc4c(=O)[nH]cc(Cl)c4c3)c(N)nc2F)ccc1C1CCOCC1 [Example I-154, 6-(3-amino-6-(3-((dimethylamino)methyl)-4-(tetrahydro-2H-pyran-4-yl)phenyl)-5-fluoropyrazin-2-yl)-4-chloroisoquinolin-1(2H)-one] | 0.1 to 10 nM | > 1000 nM |
| CCN(C)Cc1cc(-c2nc(-c3cc4c(cc3F)C(=O)NCC4)c(N)nc2F)ccc1C1CCOCC1 [Example I-164, 6-(3-amino-6-(3-((ethyl(methyl)amino)methyl)-4-(tetrahydro-2H-pyran-4-yl)phenyl)-5-fluoropyrazin-2-yl)-7-fluoro-3,4-dihydroisoquinolin-1(2H)-one] | 0.1 to 10 nM | > 1000 nM |
| CCN(C)Cc1cc(-c2nc(-c3cc(F)c4c(c3)CCNC4=O)c(N)nc2F)ccc1C1CCOCC1 [Example I-165, 6-(3-amino-6-(3-((ethyl(methyl)amino)methyl)-4-(tetrahydro-2H-pyran-4-yl)phenyl)-5-fluoropyrazin-2-yl)-8-fluoro-3,4-dihydroisoquinolin-1(2H)-one] | 0.1 to 10 nM | > 1000 nM |
| Nc1nc(F)c(-c2ccc(C3CCOCC3)c(CN3CCC3)c2)nc1-c1cc2c(cc1F)C(=O)NCC2 [Example I-170, 6-(3-amino-6-(3-(azetidin-1-ylmethyl)-4-(tetrahydro-2H-pyran-4-yl)phenyl)-5-fluoropyrazin-2-yl)-7-fluoro-3,4-dihydroisoquinolin-1(2H)-one] | 0.1 to 10 nM | > 1000 nM |
| Nc1nc(F)c(-c2ccc(C3CCOCC3)c(CN3CCC3)c2)nc1-c1cc(F)c2c(c1)CCNC2=O [Example I-171, 6-(3-amino-6-(3-(azetidin-1-ylmethyl)-4-(tetrahydro-2H-pyran-4-yl)phenyl)-5-fluoropyrazin-2-yl)-8-fluoro-3,4-dihydroisoquinolin-1(2H)-one] | 0.1 to 10 nM | 101 to 1000 nM |
| C[C@@H]1CN(c2ccc(-c3nc(-c4ccc5c(c4)CCNC5=O)c(N)nc3F)cc2CN(C)C)CCO1 [Example I-172, (R)-6-(3-amino-6-(3-((dimethylamino)methyl)-4-(2-methylmorpholino)phenyl)-5-fluoropyrazin-2-yl)-3,4-dihydroisoquinolin-1(2H)-one] | 0.1 to 10 nM | > 1000 nM |
| C[C@@H]1CN(c2ccc(-c3nc(-c4cc5c(cc4F)C(=O)NCC5)c(N)nc3F)cc2CN(C)C)CCO1 [Example I-173, (R)-6-(3-amino-6-(3-((dimethylamino)methyl)-4-(2-methylmorpholino)phenyl)-5-fluoropyrazin-2-yl)-7-fluoro-3,4-dihydroisoquinolin-1(2H)-one] | 0.1 to 10 nM | 101 to 1000 nM |
| CN(C)Cc1cc(-c2nc(-c3ccc4c(c3)C(F)(F)CNC4=O)c(N)nc2F)ccc1C1CCOCC1 [Example I-223, 6-(3-amino-6-(3-((dimethylamino)methyl)-4-(tetrahydro-2H-pyran-4-yl)phenyl)-5-fluoropyrazin-2-yl)-4,4-difluoro-3,4-dihydroisoquinolin-1(2H)-one] | 0.1 to 10 nM | > 1000 nM |
| CCN(C)Cc1cc(-c2nc(-c3ccc4c(=O)[nH]cc(F)c4c3)c(N)nc2F)ccc1C1CCOCC1 [Example I-238, 6-(3-amino-6-(3-((ethyl(methyl)amino)methyl)-4-(tetrahydro-2H-pyran-4-yl)phenyl)-5-fluoropyrazin-2-yl)-4-fluoroisoquinolin-1(2H)-one] | 0.1 to 10 nM | > 1000 nM |
